{"source": "ChEMBL document CHEMBL1201862", "about": "“PubChem BioAssay data set” (2004)", "assay_in_all_cases": "NCI tumour cell line growth inhibition, 48 h", "key": {"786-0": {"system": "786-0"}, "A498": {"system": "A498"}, "A549": {"system": "A549"}, "ACHN": {"system": "ACHN"}, "CAKI-1": {"system": "CAKI-1"}, "CCRF-CEM": {"system": "CCRF-CEM"}, "COLO 205": {"system": "COLO 205"}, "DLD-1": {"system": "DLD-1"}, "DMS-114": {"system": "DMS-114"}, "DMS-273": {"system": "DMS-273"}, "EKVX": {"system": "EKVX"}, "HCC 2998": {"system": "HCC 2998"}, "HCT-116": {"system": "HCT-116"}, "HCT-15": {"system": "HCT-15"}, "HL-60": {"system": "HL-60"}, "HOP-62": {"system": "HOP-62"}, "HOP-92": {"system": "HOP-92"}, "HT-29": {"system": "HT-29"}, "IGROV-1": {"system": "IGROV-1"}, "K562": {"system": "K562"}, "KM-20L2": {"system": "KM-20L2"}, "KM12": {"system": "KM12"}, "LOX IMVI": {"system": "LOX IMVI"}, "LXFL 529": {"system": "LXFL 529"}, "M14": {"system": "M14"}, "M19-MEL": {"system": "M19-MEL"}, "MOLT-4": {"system": "MOLT-4"}, "Malme-3M": {"system": "Malme-3M"}, "NCI-H226": {"system": "NCI-H226"}, "NCI-H23": {"system": "NCI-H23"}, "NCI-H460": {"system": "NCI-H460"}, "NCI-H522": {"system": "NCI-H522"}, "OVCAR-3": {"system": "OVCAR-3"}, "OVCAR-4": {"system": "OVCAR-4"}, "OVCAR-5": {"system": "OVCAR-5"}, "OVCAR-8": {"system": "OVCAR-8"}, "RPMI-8226": {"system": "RPMI-8226"}, "RXF 393": {"system": "RXF 393"}, "RXF 631": {"system": "RXF 631"}, "SF-268": {"system": "SF-268"}, "SF-295": {"system": "SF-295"}, "SF-539": {"system": "SF-539"}, "SK-MEL-28": {"system": "SK-MEL-28"}, "SK-MEL-2": {"system": "SK-MEL-2"}, "SK-MEL-5": {"system": "SK-MEL-5"}, "SN12C": {"system": "SN12C"}, "SNB-19": {"system": "SNB-19"}, "SNB-75": {"system": "SNB-75"}, "SNB-78": {"system": "SNB-78"}, "SR": {"system": "SR"}, "SW-620": {"system": "SW-620"}, "TK-10": {"system": "TK-10"}, "U-251": {"system": "U-251"}, "UACC-257": {"system": "UACC-257"}, "UACC-62": {"system": "UACC-62"}, "UO-31": {"system": "UO-31"}, "XF498": {"system": "XF498"}}, "note": "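Method: 48-hour compound exposure of cells in 96-well plates, five concentrations, linear interpolation of endpoints. GI50 = concentration required for 50% inhibition of growth.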 The source made the active and inactive calls. Cut-off read from the data, not from the text of the source: active = GI50 up to about 1.1 µM and inactive = higher.", "data": [{"smiles": "CCOc1ccc(/C=C\\c2cc(OC)c(OC)c(OC)c2)cc1", "values": [{"measurement": "GI50", "setting": "786-0", "result": "0.216 nM (active)"}, {"measurement": "GI50", "setting": "A498", "result": "1.24 nM (active)"}, {"measurement": "GI50", "setting": "A549", "result": "0.6 nM (active)"}, {"measurement": "GI50", "setting": "ACHN", "result": "10 nM (active)"}, {"measurement": "GI50", "setting": "CAKI-1", "result": "10 nM (active)"}, {"measurement": "GI50", "setting": "CCRF-CEM", "result": "10 nM (active)"}, {"measurement": "GI50", "setting": "COLO 205", "result": "12.7 nM (active)"}, {"measurement": "GI50", "setting": "DLD-1", "result": "19.4 nM (active)"}, {"measurement": "GI50", "setting": "DMS-114", "result": "1.18 nM (active)"}, {"measurement": "GI50", "setting": "DMS-273", "result": "15.3 nM (active)"}, {"measurement": "GI50", "setting": "EKVX", "result": "735 nM (active)"}, {"measurement": "GI50", "setting": "HCC 2998", "result": "68.5 nM (active)"}, {"measurement": "GI50", "setting": "HCT-116", "result": "0.33 nM (active)"}, {"measurement": "GI50", "setting": "HCT-15", "result": 27, "unit": "nM"}, {"measurement": "GI50", "setting": "HL-60", "result": "< 0.1 nM (active)"}, {"measurement": "GI50", "setting": "HOP-62", "result": "0.964 nM (active)"}, {"measurement": "GI50", "setting": "HOP-92", "result": "0.828 nM (active)"}, {"measurement": "GI50", "setting": "HT-29", "result": "0.131 nM (active)"}, {"measurement": "GI50", "setting": "IGROV-1", "result": "200 nM (active)"}, {"measurement": "GI50", "setting": "K562", "result": "< 0.1 nM (active)"}, {"measurement": "GI50", "setting": "KM-20L2", "result": "0.241 nM (active)"}, {"measurement": "GI50", "setting": "KM12", "result": "7.03 nM (active)"}, {"measurement": "GI50", "setting": "LOX IMVI", "result": "0.291 nM (active)"}, {"measurement": "GI50", "setting": "LXFL 529", "result": "< 0.1 nM (active)"}, {"measurement": "GI50", "setting": "M14", "result": "10 nM (active)"}, {"measurement": "GI50", "setting": "M19-MEL", "result": "19.1 nM (active)"}, {"measurement": "GI50", "setting": "MOLT-4", "result": "0.634 nM (active)"}, {"measurement": "GI50", "setting": "Malme-3M", "result": "1.39 nM (active)"}, {"measurement": "GI50", "setting": "NCI-H226", "result": "2.18 nM (active)"}, {"measurement": "GI50", "setting": "NCI-H23", "result": "27 nM (active)"}, {"measurement": "GI50", "setting": "NCI-H460", "result": "0.674 nM (active)"}, {"measurement": "GI50", "setting": "NCI-H522", "result": "< 0.1 nM (active)"}, {"measurement": "GI50", "setting": "OVCAR-3", "result": "0.303 nM (active)"}, {"measurement": "GI50", "setting": "OVCAR-4", "result": "114 nM (active)"}, {"measurement": "GI50", "setting": "OVCAR-5", "result": "22100 nM (inactive)"}, {"measurement": "GI50", "setting": "OVCAR-8", "result": "0.456 nM (active)"}, {"measurement": "GI50", "setting": "RPMI-8226", "result": "0.443 nM (active)"}, {"measurement": "GI50", "setting": "RXF 393", "result": "< 0.1 nM (active)"}, {"measurement": "GI50", "setting": "RXF 631", "result": "367 nM (active)"}, {"measurement": "GI50", "setting": "SF-268", "result": "0.625 nM (active)"}, {"measurement": "GI50", "setting": "SF-295", "result": "< 0.1 nM (active)"}, {"measurement": "GI50", "setting": "SF-539", "result": "0.102 nM (active)"}, {"measurement": "GI50", "setting": "SK-MEL-28", "result": "0.235 nM (active)"}, {"measurement": "GI50", "setting": "SK-MEL-2", "result": "3.78 nM (active)"}, {"measurement": "GI50", "setting": "SK-MEL-5", "result": "12 nM (active)"}, {"measurement": "GI50", "setting": "SN12C", "result": "1.29 nM (active)"}, {"measurement": "GI50", "setting": "SNB-19", "result": "0.165 nM (active)"}, {"measurement": "GI50", "setting": "SNB-75", "result": "< 0.1 nM (active)"}, {"measurement": "GI50", "setting": "SNB-78", "result": "0.745 nM (active)"}, {"measurement": "GI50", "setting": "SR", "result": "0.931 nM (active)"}, {"measurement": "GI50", "setting": "SW-620", "result": "< 0.1 nM (active)"}, {"measurement": "GI50", "setting": "TK-10", "result": "29600 nM (inactive)"}, {"measurement": "GI50", "setting": "U-251", "result": "0.172 nM (active)"}, {"measurement": "GI50", "setting": "UACC-257", "result": "10 nM (active)"}, {"measurement": "GI50", "setting": "UACC-62", "result": "10 nM (active)"}, {"measurement": "GI50", "setting": "UO-31", "result": "0.41 nM (active)"}, {"measurement": "GI50", "setting": "XF498", "result": "0.453 nM (active)"}]}]}
